Patent publication US11229652B2, “Treatments for autoimmune disease” (THE PROVOST, FELLOWS, FOUNDATION SCHOLARS, AND THE OTHER …, priority 2014, dated 2022)

Legend:
[1] = target: queuine-insertase enzyme complex (Homo sapiens, UniProt Q9BXR0); assay: [14C] guanine displacement assay (queuine-insertase substrate); type: biochemical
Description: The skilled reader will be aware of methods for determining whether or not a particular molecule is a substrate for the queuine-insertase enzyme complex. For example, molecules capable of acting as a queuine-insertase enzyme complex substrate may be identified by use of a displacement assay as described below (FIG. 1):
Production of [8-^14C] Guanine Labeled tRNA (tRNA*)
Before adding the 8-[^14C] guanine solution to the reaction the solution was neutralised with an equal volume (vol/vol) 0.01 M NaOH, as the [8-^14C] Guanine is supplied in 0.01 M HCl aqueous solution. A stock solution of yeast tRNA from Saccharomyces cerevisiae was made to a concentration of 2 absorbance units (260 nm) in ultrapure nuclease-free water. The recombinant Escherichia coli (E. coli) tRNA guanine transglycosylase enzyme (E. coli TGT) containing an N-terminal polyhistidine tag was produced in BL21 BL21(DE3) tgt:Kmr cells as described previously (Boland et al., 2009).
The reaction was incubated for 2 h at 37° C. After incubation the reaction was made up to 400 μL with buffer. […] The tRNA* pellet was resuspended in 20 μL nuclease-free water and the concentration measured spectrophotometrically at A260. […]
After incubation the reaction was loaded onto the column and spun at 0.1×g for 10 seconds. […] The vials containing the flow-through and washes are counted for displaced [^14C] guanine. […]

HPRT [2] = target: T1, HPRT (Homo sapiens, UniProt P00492); assay: HPRT assay (substrate or inhibitor of HPRT); type: biochemical; conditions: in vitro, FIG. 2
T1 sequence (P00492 1-218): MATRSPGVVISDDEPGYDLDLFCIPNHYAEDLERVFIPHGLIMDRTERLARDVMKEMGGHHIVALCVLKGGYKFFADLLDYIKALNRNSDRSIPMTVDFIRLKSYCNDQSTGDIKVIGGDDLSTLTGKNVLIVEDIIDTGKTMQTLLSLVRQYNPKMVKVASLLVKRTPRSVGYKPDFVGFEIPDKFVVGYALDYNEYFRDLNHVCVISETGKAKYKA
Description: Similarly, the skilled reader will be aware of methods suitable for determining whether a compound is a substrate or inhibitor of HPRT. For example, molecules that are […] for HPRT may be identified by use of the following assay:
Assay to Evaluate Compounds as Substrates or Inhibitors of the Hypoxanthine-Guanine Phosphoribosyltransferase Enzyme or ‘HPRT Assay’ (FIG. 2).
Preparation and Equilibration of Column:
Dowex-1×8, mesh size 200-400, was weighed out in a sterile 50 ml tube and washed 3 times with aqueous 1 M HCl to charge the resin. The resin was then washed 5-6 times with (20 mls each) Milli-Q H2O until a neutral pH was reached. Columns (Bio-rad 10 mL plastic columns) were set up with 1 mL of wet Dowex (wet mix applied, allowed to settle and more applied until a packed volume of 1 mL was reached). The packed resin was rinsed with 10 volumes (v/v) milli-Q H2O to ensure that a neutral pH and consistent packing was achieved.
HPRT Reactions are set up in 100 μL volume in triplicate with the following components: […]
After inactivation, the reactions were cooled to room temperature (using ice), before being applied to a 1 mL packed resin column of Dowex-1×8, mesh size 200-400. […] 15 mL of scintillation cocktail (Ecoscint A) was added and vials counted to evaluate the level of conversion of [8-^14C]-guanine to GMP. […]

wild-type T cells = assay: Proliferation of wild-type cells; type: cell-based; conditions: 100 μM, FIG. 4a
Description: (§1) FIGS. 4a, 4b, 4c, and 4d depict the molecules effects on total percentage of proliferation in wild-type spleenocytes, HPRT knockout spleenocytes, HPRT:TGT double knockout spleenocytes, and wild-type versus single TGT knockout spleenocytes respectively;

TGT KO cells = assay: Proliferation of TGT knockout cells; type: cell-based; conditions: 100 μM, FIG. 4d
Description: as §1

[3] = tested on: HPRT:TGT double knockout spleenocytes; assay: Proliferation of TGT:HPRT double knockout cells; type: cell-based; conditions: 100 μM, FIG. 4c
Description: as §1

[4] = tested on: chronic monophasic EAE disease; assay: Chronic monophasic EAE disease in mice; type: in vivo, mice (C57BL/6)
Description: To assess the potential of these compounds in vivo, a chronic monophasic EAE disease in mice was induced before treatment with the new chemical entity (NCE). EAE Disease was induced in 8-10 week old female mice (C57BL/6) by sub-cutaneous (s.c.) injection of 200 II emulsion containing 150 μg […] peptide (Genscript) in Complete Freund's Adjuvant (CFA; containing 5 mg/ml heat-inactivated Mycobacterium tuberculosis). On the same day, mice were administered 500 ng Pertussis Toxin (Kaketsuken, Japan) intraperitoneally (i.p.) and again two days later. Disease severity was recorded every 24 hours: 0-Normal; 1-flaccid tail; 2-imparied/wobbly gait; 3-complete hind limb weakness; 4-hind limb and forelimb paralysis; 5-moribund state/dead. Protocol is based on the Nature Protocols for Active induction of experimental allergic encephalomyelitis, which includes the scoring methodology: • Stromnes I M, Goverman J M (2006) Active induction of experimental allergic encephalomyelitis. Nat Protoc. 1(4):1810-9.
The EAE score relates to an assessment of disease progression with respect to issues like tail paralysis and limb paralysis, a higher score is a worse condition. A score of 1 indicates decreased tail tone, a score of 2 indicates hind leg weakness (paraparesis), a score of 3 indicates hind limb paralysis and/or incontinence. Note that the untreated animals have a continuous and progressive worsening of disease.
This contrasts with the sustained drop in body weight of non-treated EAE diseased animals to a level 86.4% that of controls at 21 dpi (17.8 grams versus 20.6 grams). Motor coordination and hind-limb strength were also evaluated by the ability of mice to cross a horizontal bar (FIG. 7). Non-diseased animals crossed the bar with an average time of 4.3±0.57 seconds.

HPRT [5] = target: T1, HPRT; conditions: higher for HPRT; cited from earlier work
[6] = tested on: Experimental Autoimmune Encephalomyelitis; EAE; conditions: earlier work; cited from earlier work
DNA = conditions: incorporated into DNA after HPRT activity; cited from earlier work

queuine-insertase enzyme complex, sequence (Q9BXR0 whole entry): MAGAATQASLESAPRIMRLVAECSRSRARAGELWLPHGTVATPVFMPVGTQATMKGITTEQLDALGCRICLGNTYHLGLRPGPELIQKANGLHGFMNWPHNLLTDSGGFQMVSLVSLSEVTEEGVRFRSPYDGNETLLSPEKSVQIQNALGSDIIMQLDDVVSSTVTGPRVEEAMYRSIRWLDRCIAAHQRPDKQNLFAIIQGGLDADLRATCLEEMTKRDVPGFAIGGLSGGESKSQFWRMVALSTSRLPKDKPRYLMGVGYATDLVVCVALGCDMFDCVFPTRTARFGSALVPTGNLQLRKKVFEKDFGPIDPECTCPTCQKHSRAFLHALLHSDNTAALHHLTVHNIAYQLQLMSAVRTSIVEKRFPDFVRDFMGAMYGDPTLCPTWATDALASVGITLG
queuine-insertase enzyme complex, sequence (Q9H974 whole entry partner): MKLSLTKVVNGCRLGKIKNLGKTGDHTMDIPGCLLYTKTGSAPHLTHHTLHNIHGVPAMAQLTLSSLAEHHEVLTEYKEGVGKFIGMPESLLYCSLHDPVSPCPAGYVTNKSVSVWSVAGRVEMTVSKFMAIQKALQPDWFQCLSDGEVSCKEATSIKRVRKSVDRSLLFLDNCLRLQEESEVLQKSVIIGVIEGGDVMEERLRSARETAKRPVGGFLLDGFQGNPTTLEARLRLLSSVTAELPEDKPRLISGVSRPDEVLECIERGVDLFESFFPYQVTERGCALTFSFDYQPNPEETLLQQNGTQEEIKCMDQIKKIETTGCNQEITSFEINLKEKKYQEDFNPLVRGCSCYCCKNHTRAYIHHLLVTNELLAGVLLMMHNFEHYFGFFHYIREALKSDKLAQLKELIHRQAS

Which “substrate for TGT (queuine-insertase enzyme complex)” value ([1]; in vitro, recombinant TGT enzyme, FIG. 1) does the source give for `Cl.Nc1nc2[nH]cc(CNCCCc3ccccc3)c2c(=O)[nH]1` [Compound I, N-((2-amino-4-oxo-4,7-dihydro-3H-pyrrolo[2,3-d]pyrimidin-5-yl)methyl)-3-phenylpropan-1-aminium chloride] here?
The value was “substrate for TGT”.

And the “substrate or inhibitor of HPRT” value (HPRT [2])?
Its value is “not to be a substrate or inhibitor”.

And the proliferation (wild-type T cells)?
The proliferation was “less than 50%”.

What about the effect on proliferation (TGT KO cells) of the same compound?
Its effect on proliferation is “lack of effect”.

And the effect on proliferation [3]?
Its effect on proliferation is “essentially unaffected”.

What about the “EAE score outcome after 4 daily treatments” value ([4]; EAE mice, 30 mg/kg, i.p., FIG. 5) of the same compound?
Its value is “disease free”.

And the “time to reversal of symptoms” value ([4]; EAE mice, 30 mg/kg, i.p., highest dosage, FIG. 5)?
Its value is no more than 24 h.

What about the EAE disease progression ([4]; EAE mice, lower doses, FIG. 5) of the same compound?
Its EAE disease progression is “disease progression was halted and reversed”.

And the “motor coordination and hind-limb strength (horizontal bar crossing)” value ([4]; EAE mice, within 4 treatments, FIG. 7)?
Its value is “fully restored the performance of EAE diseased mice to control levels”.

And the “weight level relative to controls” value ([4]; treated EAE mice, 21 days post inoculation, FIG. 6)?
The value was 96.6%.

And the body weight ([4]; treated EAE mice, 21 days post inoculation, controls 20.6 grams, FIG. 6)?
The body weight was 19.9 grams.

With `Nc1nc2nc[nH]c2c(=S)[nH]1` [Example 6TG, 6-thioguanine] as the compound, how does the “substrate potency for HPRT relative to queuine-insertase enzyme complex” value (HPRT [5]) read?
Its value is “approx. 10 fold”.

And the “effect on the murine model of chronic MS (EAE)” value [6]?
The value was “dramatic effect”.

What about the genotoxicity (DNA) of the same compound?
Its genotoxicity is “genotoxic”.

Which “maximum displacement of [14C] guanine” value ([1]; 200 μM compound, background ≤10 pmol, ≥50 pmol counts as positive substrate) does the source give for `Nc1nc2[nH]cc(CN[C@H]3C=C[C@H](O)[C@@H]3O)c2c(=O)[nH]1` [queuine, 2-amino-5-((((1S,4S,5R)-4,5-dihydroxycyclopent-2-en-1-yl)amino)methyl)-3,7-dihydro-4H-pyrrolo[2,3-d]pyrimidin-4-one, reference compound] here?
Its value is 240 pmol.
